Assay results published in the NIST ThermoML archive (doi:10.1021/je700119m).
± gives the expanded uncertainty stated by the source.

Experiments:
[1] = 298.15 K, 101.33 kPa, Liquid
[2] = refractive index (Na D-line) (dimensionless); conditions: 298.15 K; 101.33 kPa; Liquid; Standard Abbe refractometry

Row | mass density [1] [kg/m3] | refractive index [2] | mass density ([1]; Vibrating tube method) [kg/m3] | SMILES
1 | 1327.2 ± 2.7 | 1.4827 ± 0.00078 | – | COS(=O)(=O)[O-].Cn1cc[n+](C)c1 [1,3-dimethylimidazolium methylsulfate]
2 | 1367.3 ± 2.9 | 1.40937 ± 0.00078 | – | CCCCn1cc[n+](C)c1.F[P-](F)(F)(F)(F)F [1-butyl-3-methylimidazolium hexafluorophosphate]
3 | 785.1 ± 0.5 | 1.35929 ± 0.00068 | – | CCO [ethanol]
4 | – | 1.37496 ± 0.00068 | 781 ± 0.4 | CC(C)O [propan-2-ol]

Row | SMILES | mass density [1] [kg/m3] | refractive index [2] | mass density ([1]; Vibrating tube method) [kg/m3]
5 | CCC(C)=O [butanone] | 799.7 ± 0.6 | 1.37618 ± 0.00068 | –
